Measured values reported in patent US6207393A, “Inhibition of intracellular signal transduction by 14-3-3-binding peptides” (Washington University, priority 1999, dated 2001).
Several values for one entry are separate records, joined by “and”; a condition that tells them apart may be missing. Identical values can stand only once. Where a SMILES comes first, the peptide text is derived from it. [ ]: non-standard residue; d: D form. pS = N[C@@H](COP(=O)(O)O)C(=O)O

Columns and labels:
14-3-3 tau = molecular target: T1, 14-3-3 tau (Homo sapiens, UniProt P27348); assay: SPR competitive inhibition of 14-3-3 tau binding to phosphorylated Raf-259 peptide; settings: isoform tau
T1 construct: made in house; host or cells: E. coli DH5α (vector pGEX-KT)
T1 sequence (P27348 1-245): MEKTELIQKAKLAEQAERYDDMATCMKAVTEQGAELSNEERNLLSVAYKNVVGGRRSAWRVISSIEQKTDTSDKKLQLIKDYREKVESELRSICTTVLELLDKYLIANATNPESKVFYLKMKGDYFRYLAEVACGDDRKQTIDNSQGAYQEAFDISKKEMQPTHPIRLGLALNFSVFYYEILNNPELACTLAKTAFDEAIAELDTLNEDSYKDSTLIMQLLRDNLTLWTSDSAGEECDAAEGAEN
Method: (§1) The ability of each peptide to inhibit binding of 14-3-3 zeta to the phosphorylated peptide was then tested in a range of concentrations between 1 and 50 μM. 14-3-3 zeta was prepared according to the methods in Example 1 and binding affinities and specificities were determined using the peptides in Table 2. The 14-3-3 zeta fusion proteins (0.5-1.0 μM) were pre-incubated with a given peptide at concentrations between 1 μM and 50 μM. 14-3-3 zeta was then infused across a sensor chip surface which had been previously coupled with the phosphorylated Raf-259 peptide (SEQ ID NO: 4). IC50 values were determined by plotting the concentration of competitor peptide required to achieve a 50% reduction in equilibrium binding.
There are seven known isoforms of 14-3-3 which form homo- and heterodimers in vivo. If different isoforms of 14-3-3 could bind to proteins with distinct specificities, heterodimeric forms of 14-3-3 might function as modular linker proteins, bringing together different proteins into a single complex. We were, therefore, interested in determining whether different 14-3-3 isoforms recognize phosphoserine in a sequence specific fashion. This hypothesis was tested by expressing and purifying three other 14-3-3 isoforms, eta, beta and tau, and measuring their affinity towards the panel of phosphorylated peptides generated above. Using the Surface Plasmon Resonance method, the "on" and "off" rates for 14-3-3 binding to the phosphorylated Raf-259 peptide were calculated (Table 6).
Competitive inhibition with the mutated phosphorylated Raf-1 peptides was used to determine whether their specificities were similar (Table 7). In each case, the calculated IC50 s were very similar to those calculated for 14-3-3 zeta.

14-3-3 zeta [1] = molecular target: T2, 14-3-3 zeta (Homo sapiens, UniProt P63104); assay: Surface plasmon resonance, GST-14-3-3 zeta binding to immobilized biotinylated Raf-259 peptide (binding and kinetics); settings: isoform zeta
T2 construct: made in house; host or cells: E. coli DH5α (vector pGEX-KT)
T2 sequence (P63104 1-245): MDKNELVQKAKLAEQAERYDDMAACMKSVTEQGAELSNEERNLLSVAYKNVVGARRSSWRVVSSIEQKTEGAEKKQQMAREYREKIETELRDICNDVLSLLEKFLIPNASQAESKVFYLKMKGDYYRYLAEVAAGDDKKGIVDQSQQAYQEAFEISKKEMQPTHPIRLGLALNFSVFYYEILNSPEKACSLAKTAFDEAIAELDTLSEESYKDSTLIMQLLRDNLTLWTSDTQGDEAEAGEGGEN
Method: These experiments were performed using the BIAcore 2000 (Pharmacia). The basic principles and detection methods have been reviewed previously (Jonsson et al. Biotech. 11:620-7, 1991; Jonsson et al. Ann Bio Clin 51:19-26, 1993 which are incorporated by reference). In brief, 5 μl of the biotinylated raf-259 peptide (1 nM) was immobilized onto streptavidin-coated (SA5, Pharmacia) sensor chips at a flow rate of 5 μl/min at 25° C. […] To phosphorylate the immobilized peptides, 5 U of PKA in a buffer containing 200 μM ATP in 50 μl was infused over the chip at a flow rate of 2 μl/min at 30° C.
Because the surface plasmon resonance detects binding in real time, this method can be used to directly determine the rates of association (kon) and dissociation (koff). For these kinetic measurements, GST/14-3-3 fusion proteins were injected over a range of concentrations between 200 nM and 5 μM. The "on" rate, kon, was determined by calculating dR/dt for the initial linear portion of association using the Biaevaluation software (Pharmacia). Because ligand rebinding to the sensor chip can affect the "off" rate (koff, Panayotou et al. Mol Cell Biol 13:3567-76, 1993 which is incorporated by reference), we measured the "off" rate in the presence of 50 μM free ligand by using the coinject function of the Biacore. The "off" rate measured in the absence of 50 μM free ligand was approximately 10-fold lower.
The biotinylated, […] Raf-1 peptide (SEQ ID NO: 4) was coupled to avidin coated chip surface to study the kinetics of its binding to 14-3-3 zeta. The association rate was determined to be approximately 2.3×10^4 M^-1×s^-1 and the dissociation rate was determined to be approximately 2.8×10^-3 s^-1. To minimize the effects of protein rebinding to the surface of the sensor chip, the dissociation rate was measured in the presence of 50 μM free phosphorylated Raf-1 peptide.

14-3-3 zeta [2] = molecular target: T2, 14-3-3 zeta; assay: SPR competitive inhibition of 14-3-3 zeta binding to chip-coupled phosphorylated Raf-259 peptide; settings: 14-3-3 zeta 0.5-1.0 μM; competitor 1-50 μM; relative affinity only
Method: as §1

How did the IC50 (14-3-3 tau) turn out when `CC(C)C[C@H](N)C(=O)N[C@@H](CO)C(=O)N[C@@H](CCC(N)=O)C(=O)N[C@@H](CCCNC(=N)N)C(=O)N[C@@H](CCC(N)=O)C(=O)N[C@@H](CCCNC(=N)N)C(=O)N[C@@H](CO)C(=O)N[C@H](C(=O)N[C@@H](COP(=O)(O)O)C(=O)N[C@H](C(=O)N1CCC[C@H]1C(=O)N[C@@H](CC(N)=O)C(=O)N[C@H](C(=O)N[C@@H](Cc1c[nH]cn1)C(=O)N[C@@H](C)C(=O)O)C(C)C)[C@@H](C)O)[C@@H](C)O` [pS-Raf-259] (H-LSQRQRST[pS]TPNVHA-OH) was run?
Its IC50 is 5 µM.

What about the Kd (14-3-3 zeta [1]; read-out: KD) of the same compound?
The Kd was 0.122 µM.

And the koff (14-3-3 zeta [1]; read-out: koff)?
Its koff is 0.0028 s⁻¹.

What about the kon (14-3-3 zeta [1]; read-out: kon) of the same compound?
The kon was 23000 M⁻¹ s⁻¹.

And the IC50 (14-3-3 zeta [2])?
Its IC50 is 6 µM and ~6 µM.
